From patent US10954232B2, “Pyrazole derivative as ALK5 inhibitor and uses thereof” (HANMI PHARMACEUTICAL CO., LTD., priority 2016, dated 2021)

Molecular target: T1, ALK5 kinase (Homo sapiens, UniProt P36897)
T1 construct: GST; purchased Thermo Fisher Scientific Solutions
T1 sequence (P36897 34-503): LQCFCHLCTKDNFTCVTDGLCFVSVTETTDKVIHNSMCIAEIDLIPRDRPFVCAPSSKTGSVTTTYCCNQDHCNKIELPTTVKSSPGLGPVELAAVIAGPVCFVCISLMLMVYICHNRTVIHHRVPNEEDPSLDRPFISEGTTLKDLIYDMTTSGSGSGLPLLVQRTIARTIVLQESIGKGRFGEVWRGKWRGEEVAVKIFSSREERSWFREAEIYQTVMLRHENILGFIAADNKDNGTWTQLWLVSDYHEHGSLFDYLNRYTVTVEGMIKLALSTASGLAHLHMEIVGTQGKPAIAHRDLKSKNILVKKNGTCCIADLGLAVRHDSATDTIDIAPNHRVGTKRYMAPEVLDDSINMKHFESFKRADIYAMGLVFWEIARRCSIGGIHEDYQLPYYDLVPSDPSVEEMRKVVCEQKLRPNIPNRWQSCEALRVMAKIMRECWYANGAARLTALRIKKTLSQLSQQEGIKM
Assay: Activity inhibition test on ALK5 enzyme (LanthaScreen Eu binding kinase assay)
Conditions: kinase tracer 178, 60 minutes at room temperature
How it was run: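 IC50 is the concentration giving 50% inhibition relative to control, taken from fluorescence after 60 min stirring at room temperature. Final mix held kinase 5 nM, Eu-GST binding antibody 2 nM and tracer 178 10 nM. Compounds were serially diluted from 1 μM to 0.0001 μM.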

Row | SMILES | IC50
1 | Cc1cccc(-n2nc(C(=O)Nc3ccc(F)nc3)cc2-c2ccc3ncsc3c2)n1 [Example 71, 5-(benzo[d]thiazol-6-yl)-N-(6-fluoropyridin-3-yl)-1-(6-methylpyridin-2-yl)-1H-pyrazole-3-carboxyamide] | 8 nM
2 | Cc1cccc(-n2nc(C(=O)Nc3ccnc(F)c3)cc2-c2ccc3ncsc3c2)n1 [Example 72, 5-(benzo[d]thiazol-6-yl)-N-(2-fluoropyridin-4-yl)-1-(6-methylpyridin-2-yl)-1H-pyrazole-3-carboxyamide] | 11 nM
3 | Cc1cccc(-n2nc(C(=O)Nc3ccc(Cl)nc3)cc2-c2ccc3ncsc3c2)n1 [Example 73, 5-(benzo[d]thiazol-6-yl)-N-(6-chloropyridin-3-yl)-1-(6-methylpyridin-2-yl)-1H-pyrazole-3-carboxyamide] | 5.8 nM
4 | Cc1cccc(-n2nc(C(=O)Nc3ccnc(Cl)c3)cc2-c2ccc3ncsc3c2)n1 [Example 74, 5-(benzo[d]thiazol-6-yl)-N-(2-chloropyridin-4-yl)-1-(6-methylpyridin-2-yl)-1H-pyrazole-3-carboxyamide] | 2.3 nM
5 | Cc1cccc(-n2nc(C(=O)Nc3nccs3)cc2-c2ccc3ncsc3c2)n1 [Example 75, 5-(benzo[d]thiazol-6-yl)-1-(6-methylpyridin-2-yl)-N-(thiazol-2-yl)-1H-pyrazole-3-carboxyamide] | 7.4 nM
6 | Cc1cccc(-n2nc(C(=O)NCc3ccccc3)cc2-c2ccc3ncsc3c2)n1 [Example 76, 5-(benzo[d]thiazol-6-yl)-N-benzyl-1-(6-methylpyridin-2-yl)-1H-pyrazole-3-carboxyamide] | ~10 nM
7 | Cc1cccc(-n2nc(C(=O)NCc3ccccc3F)cc2-c2ccc3ncsc3c2)n1 [Example 77, 5-(benzo[d]thiazol-6-yl)-N-(2-fluorobenzyl)-1-(6-methylpyridin-2-yl)-1H-pyrazole-3-carboxyamide] | 7.2 nM
8 | Cc1cccc(-n2nc(C(=O)NCc3cccc(F)c3)cc2-c2ccc3ncsc3c2)n1 [Example 78, 5-(benzo[d]thiazol-6-yl)-N-(3-fluorobenzyl)-1-(6-methylpyridin-2-yl)-1H-pyrazole-3-carboxyamide] | 3.4 nM
9 | Cc1cccc(-n2nc(C(=O)NCc3ccc(F)cc3)cc2-c2ccc3ncsc3c2)n1 [Example 79, 5-(benzo[d]thiazol-6-yl)-N-(4-fluorobenzyl)-1-(6-methylpyridin-2-yl)-1H-pyrazole-3-carboxyamide] | 5.6 nM
10 | Cc1cccc(-n2nc(C(=O)Nc3cnn(S(C)(=O)=O)c3)cc2-c2ccc3ncsc3c2)n1 [Example 80, 5-(benzo[d]thiazol-6-yl)-1-(6-methylpyridin-2-yl)-N-(1-(methylsulfonyl)-1H-pyrazol-4-yl)-1H-pyrazole-3-carboxyamide] | 1.3 nM
11 | Cc1cccc(-n2nc(C(=O)Nc3cnn(S(=O)(=O)C4CC4)c3)cc2-c2ccc3ncsc3c2)n1 [Example 81, 5-(benzo[d]thiazol-6-yl)-N-(1-(cyclopropylsulfonyl)-1H-pyrazol-4-yl)-1-(6-methylpyridin-2-yl)-1H-pyrazole-3-carboxyamide] | 1.5 nM
12 | Cc1cccc(-n2nc(C(=O)Nc3cccc(O)c3)cc2-c2ccc3ncsc3c2)n1 [Example 82, 5-(benzo[d]thiazol-6-yl)-N-(3-hydroxyphenyl)-1-(6-methylpyridin-2-yl)-1H-pyrazole-3-carboxyamide] | 2.7 nM
13 | Cc1cccc(-n2nc(C(=O)Nc3ccc(O)cc3)cc2-c2ccc3ncsc3c2)n1 [Example 83, 5-(benzo[d]thiazol-6-yl)-N-(4-hydroxyphenyl)-1-(6-methylpyridin-2-yl)-1H-pyrazole-3-carboxyamide] | 0.7 nM
14 | Cc1cccc(-n2nc(C(=O)Nc3cccc(CO)c3)cc2-c2ccc3ncsc3c2)n1 [Example 84, 5-(benzo[d]thiazol-6-yl)-N-(3-(hydroxymethyl)phenyl)-1-(6-methylpyridin-2-yl)-1H-pyrazole-3-carboxyamide] | 3.9 nM
15 | Cc1cccc(-n2nc(C(=O)Nc3ccc(CO)cc3)cc2-c2ccc3ncsc3c2)n1 [Example 85, 5-(benzo[d]thiazol-6-yl)-N-(4-(hydroxymethyl)phenyl)-1-(6-methylpyridin-2-yl)-1H-pyrazole-3-carboxyamide] | 3.8 nM
16 | Cc1cccc(-n2nc(C(=O)Nc3ccc(N)cc3)cc2-c2ccc3ncsc3c2)n1 [Example 86, N-(4-aminophenyl)-5-(benzo[d]thiazol-6-yl)-1-(6-methylpyridin-2-yl)-1H-pyrazole-3-carboxyamide] | 1.1 nM

Row | SMILES | IC50
17 | CCCCNc1ccc(NC(=O)c2cc(-c3ccc4ncsc4c3)n(-c3cccc(C)n3)n2)cc1 [Example 87, 5-(benzo[d]thiazol-6-yl)-N-(4-(butylamino)phenyl)-1-(6-methylpyridin-2-yl)-1H-pyrazole-3-carboxyamide] | 9.1 nM
18 | Cc1cccc(-n2nc(C(=O)Nc3ccc(NC4CC4)cc3)cc2-c2ccc3ncsc3c2)n1 [Example 88, 5-(benzo[d]thiazol-6-yl)-N-(4-(cyclopropylamino)phenyl)-1-(6-methylpyridin-2-yl)-1H-pyrazole-3-carboxyamide] | 3.5 nM
19 | Cc1cccc(-n2nc(C(=O)Nc3ccc(S(C)(=N)=O)cc3)cc2-c2ccc3ncsc3c2)n1 (centres unmarked) [Example 89, 5-(benzo[d]thiazol-6-yl)-1-(6-methylpyridin-2-yl)-N-(4-(S-methylsulfonimidoyl)phenyl)-1H-pyrazole-3-carboxyamide] | 3.5 nM
20 | COc1ccccc1NC(=O)c1cc(-c2ccc3ncnn3c2)n(-c2cccc(C)n2)n1 [Example 90, 5-([1,2,4]triazolo[1,5-α]pyridin-6-yl)-N-(2-methoxyphenyl)-1-(6-methylpyridin-2-yl)-1H-pyrazole-3-carboxyamide] | 5 nM
21 | COc1cccc(NC(=O)c2cc(-c3ccc4ncnn4c3)n(-c3cccc(C)n3)n2)c1 [Example 91, 5-([1,2,4]triazolo[1,5-α]pyridin-6-yl)-N-(3-methoxyphenyl)-1-(6-methylpyridin-2-yl)-1H-pyrazole-3-carboxyamide] | 10 to 100 nM
22 | COc1ccccc1NC(=O)c1cc(-c2ccc3ncnn3c2)n(-c2cccc(C)n2)n1 [Example 92, 5-([1,2,4]triazolo[1,5-α]pyridin-6-yl)-N-(2-methoxyphenyl)-1-(6-methylpyridin-2-yl)-1H-pyrazole-3-carboxyamide] | 10 to 100 nM
23 | Cc1cccc(-n2nc(C(=O)Nc3ccc(O)cc3)cc2-c2ccc3ncnn3c2)n1 [Example 93, 5-([1,2,4]triazolo[1,5-α]pyridin-6-yl)-N-(4-hydroxyphenyl)-1-(6-methylpyridin-2-yl)-1H-pyrazole-3-carboxyamide] | 3.9 nM
24 | Cc1cccc(-n2nc(C(=O)Nc3ccc(OC(C)C)cc3)cc2-c2ccc3ncnn3c2)n1 [Example 94] | ~10 nM
25 | COCCOc1ccc(NC(=O)c2cc(-c3ccc4ncnn4c3)n(-c3cccc(C)n3)n2)cc1 [Example 95, 5-([1,2,4]triazolo[1,5-α]pyridin-6-yl)-N-(4-(2-methoxyethoxy)phenyl)-1-(6-methylpyridin-2-yl)-1H-pyrazole-3-carboxyamide] | 25 nM
26 | Cc1cccc(-n2nc(C(=O)Nc3ccc4c(c3)OCO4)cc2-c2ccc3ncnn3c2)n1 [Example 96, 5-([1,2,4]triazolo[1,5-α]pyridin-6-yl)-N-(benzo[d][1,3]dioxol-5-yl)-1-(6-methylpyridin-2-yl)-1H-pyrazole-3-carboxyamide] | 3.5 nM
27 | COc1ccc(NC(=O)c2cc(-c3ccc4ncnn4c3)n(-c3cccc(C)n3)n2)c(F)c1 [Example 97, 5-([1,2,4]triazolo[1,5-α]pyridin-6-yl)-N-(2-fluoro-4-methoxyphenyl)-1-(6-methylpyridin-2-yl)-1H-pyrazole-3-carboxyamide] | 10 to 100 nM
28 | COc1ccc(NC(=O)c2cc(-c3ccc4ncnn4c3)n(-c3cccc(C)n3)n2)cc1F [Example 98, 5-([1,2,4]triazolo[1,5-α]pyridin-6-yl)-N-(3-fluoro-4-methoxyphenyl)-1-(6-methylpyridin-2-yl)-1H-pyrazole-3-carboxyamide] | 5.3 nM
29 | Cc1cccc(-n2nc(C(=O)Nc3ccccc3OC(F)(F)F)cc2-c2ccc3ncnn3c2)n1 [Example 99, 5-([1,2,4]triazolo[1,5-α]pyridin-6-yl)-1-(6-methylpyridin-2-yl)-N-(2-(trifluoromethoxy)phenyl)-1H-pyrazole-3-carboxyamide] | ~10 nM
30 | Cc1cccc(-n2nc(C(=O)Nc3cccc(OC(F)(F)F)c3)cc2-c2ccc3ncnn3c2)n1 [Example 100, 5-([1,2,4]triazolo[1,5-α]pyridin-6-yl)-1-(6-methylpyridin-2-yl)-N-(3-(trifluoromethoxy)phenyl)-1H-pyrazole-3-carboxyamide] | 10 to 100 nM
31 | Cc1cccc(-n2nc(C(=O)Nc3ccc(OC(F)(F)F)cc3)cc2-c2ccc3ncnn3c2)n1 [Example 101, 5-([1,2,4]triazolo[1,5-α]pyridin-6-yl)-1-(6-methylpyridin-2-yl)-N-(4-(trifluoromethoxy)phenyl)-1H-pyrazole-3-carboxyamide] | 10 to 100 nM
32 | Cc1cccc(-n2nc(C(=O)Nc3cccc(N(C)C)c3)cc2-c2ccc3ncnn3c2)n1 [Example 102, 5-([1,2,4]triazolo[1,5-α]pyridin-6-yl)-N-(3-(dimethylamino)phenyl)-1-(6-methylpyridin-2-yl)-1H-pyrazole-3-carboxyamide] | 10 to 100 nM
